Experimental data: patent US8357678B2, “Chair ruthenium complexes and their use as anticancer agents” (Guangdong Pharmaceutical University, priority 2007, dated 2013)

Experiments:
Experiment in all cases: MTT assay, inhibitory activity against growth of cancer cells
Assay type in all cases: cell-based
[1] = tested on: Human lung adenocarcinoma epithelial cell line A-549; conditions: Dosage 5 μg/ml, 72 h incubation
Procedure: (§1) The inhibitory activity of these chair ruthenium(II) complexes have been evaluated by MTT assay by using 5-fluorouracil (5-Fu) as positive control. Human hepatocarcinoma cell line Bel-7402, human intestinal adenocarcinoma cell line HCT-8 and Human lung adenocarcinoma epithelial cell line A-549 were supplied by the Institute of Materia Medica, Chinese Academy of Medical Sciences & Peking Union Medical College. The determination of the cytotoxicity (dark toxicity) of the compound was carried out in parallel with the phototoxicity determination following the same procedure, with the exclusion of the irradiation.
(§2) General method: Cells were diluted to 5000/ml by PRMI1640 minimal essential medium with 10% fetal calf serum (FCS), plated at 100 μl cells per well in a 96-well Corning microtiter plate, and incubated at 37° C. with 5% CO2 for 24 h. After cell was covered a single layer, drugs (10 μl) was added, and PRMI1640 minimal essential medium was supplied to make the total volume to 200 μl. After incubated for another 72 h at 37° C., 5% CO2, the medium was removed and freshly prepared MTT dissolved in DMSO (200 μl) was added, and the OD value was recorded on ELISA Reader at 544 nm. The inhibitory activity of ruthenium complexes was calculated according to equation: Inhibitory activity(%)=([…])/(ODcontrol−ODblank)×100%.

[2] = tested on: human intestinal adenocarcinoma cell line HCT-8; conditions: 72 h incubation
Procedure: as §1, §2

[3] = tested on: human hepatocarcinoma cell line Bel-7402; conditions: 72 h incubation
Procedure: as §1, §2

FC(F)(F)c1ccccc1-c1nc2c3ccc[n+]4c3c3c(ccc[n+]3[Ru-4]435([n+]4ccccc4-c4cccc[n+]43)[n+]3ccccc3-c3cccc[n+]35)c2[nH]1.F[P-](F)(F)(F)(F)F.F[P-](F)(F)(F)(F)F [Δ-1, Δ-[Ru(bpy)2(tFPIP)](PF6)2]
Inhibitory activity (%) A-549 [1]: 62.0%
Inhibitory activity (%) HCT-8 ([2]; Dosage 5 μg/ml): 81.6%
Inhibitory activity (%) HCT-8 ([2]; Dosage 50 μg/ml): 86.2%
Inhibitory activity (%) BEL-7402 ([3]; Dosage 5 μg/ml): 85.0%
Inhibitory activity (%) BEL-7402 ([3]; Dosage 50 μg/ml): 88.3%

F[P-](F)(F)(F)(F)F.F[P-](F)(F)(F)(F)F.c1cc[n+]2c(c1)-c1cccc[n+]1[Ru-4]213([n+]2ccccc2-c2cccc[n+]21)[n+]1ccccc1-c1[nH]c2cc4ccccc4cc2[n+]13 [Δ-4, Δ-[Ru(bpy)2(PYNI)](PF6)2]
Inhibitory activity (%) A-549 [1]: −8.2%
Inhibitory activity (%) HCT-8 ([2]; Dosage 5 μg/ml): 1.8%
Inhibitory activity (%) HCT-8 ([2]; Dosage 50 μg/ml): 38.6%
Inhibitory activity (%) BEL-7402 ([3]; Dosage 5 μg/ml): 2.8%
Inhibitory activity (%) BEL-7402 ([3]; Dosage 50 μg/ml): 36.0%

FC(F)(F)c1ccccc1-c1nc2c3ccc[n+]4c3c3c(ccc[n+]3[Ru-4]435([n+]4ccccc4-c4cccc[n+]43)[n+]3ccccc3-c3cccc[n+]35)c2[nH]1.F[P-](F)(F)(F)(F)F.F[P-](F)(F)(F)(F)F [Λ-1, Λ-[Ru(bpy)2(tFPIP)](PF6)2]
Inhibitory activity (%) A-549 [1]: 56.4%
Inhibitory activity (%) HCT-8 ([2]; Dosage 5 μg/ml): 83.0%
Inhibitory activity (%) HCT-8 ([2]; Dosage 50 μg/ml): 88.9%
Inhibitory activity (%) BEL-7402 ([3]; Dosage 5 μg/ml): 85.2%
Inhibitory activity (%) BEL-7402 ([3]; Dosage 50 μg/ml): 88.8%

F[P-](F)(F)(F)(F)F.F[P-](F)(F)(F)(F)F.c1cc[n+]2c(c1)-c1cccc[n+]1[Ru-4]213([n+]2ccccc2-c2cccc[n+]21)[n+]1cccc2c4nc(-c5ccc6c(c5)OCCO6)[nH]c4c4ccc[n+]3c4c21 [Λ-3, Λ-[Ru(bpy)2(IPBH)](PF6)2]
Inhibitory activity (%) A-549 [1]: −0.92%
Inhibitory activity (%) HCT-8 ([2]; Dosage 5 μg/ml): 2.1%
Inhibitory activity (%) HCT-8 ([2]; Dosage 50 μg/ml): 39.1%
Inhibitory activity (%) BEL-7402 ([3]; Dosage 5 μg/ml): 3.0%
Inhibitory activity (%) BEL-7402 ([3]; Dosage 50 μg/ml): 44.3%

F[P-](F)(F)(F)(F)F.F[P-](F)(F)(F)(F)F.c1cc[n+]2c(c1)-c1cccc[n+]1[Ru-4]213([n+]2ccccc2-c2cccc[n+]21)[n+]1ccccc1-c1[nH]c2cc4ccccc4cc2[n+]13 [Λ-4, Λ-[Ru(bpy)2(PYNI)](PF6)2]
Inhibitory activity (%) A-549 [1]: −2.3%
Inhibitory activity (%) HCT-8 ([2]; Dosage 5 μg/ml): 3.6%
Inhibitory activity (%) HCT-8 ([2]; Dosage 50 μg/ml): 21.4%
Inhibitory activity (%) BEL-7402 ([3]; Dosage 5 μg/ml): 4.4%
Inhibitory activity (%) BEL-7402 ([3]; Dosage 50 μg/ml): 22.6%

Δ-[Ru(bpy)2(IPBP)](PF6)2 [Δ-2]
Inhibitory activity (%) A-549 [1]: 18.5%
Inhibitory activity (%) HCT-8 ([2]; Dosage 5 μg/ml): 13.1%
Inhibitory activity (%) HCT-8 ([2]; Dosage 50 μg/ml): 83.4%
Inhibitory activity (%) BEL-7402 ([3]; Dosage 5 μg/ml): 9.6%
Inhibitory activity (%) BEL-7402 ([3]; Dosage 50 μg/ml): 86.8%

Λ-[Ru(bpy)2(IPBP)](PF6)2 [Λ-2]
Inhibitory activity (%) A-549 [1]: −0.52%
Inhibitory activity (%) HCT-8 ([2]; Dosage 5 μg/ml): 2.23%
Inhibitory activity (%) HCT-8 ([2]; Dosage 50 μg/ml): 53.7%
Inhibitory activity (%) BEL-7402 ([3]; Dosage 5 μg/ml): 0.19%
Inhibitory activity (%) BEL-7402 ([3]; Dosage 50 μg/ml): 64.9%
